Assay results published in paper PMC10835732, “Pharmacokinetics of Hydroxytyrosol and Its Sulfate and Glucuronide Metabolites after the Oral Administration of Table Olives to Sprague-Dawley Rats” (Journal of Agricultural and Food Chemistry, 2024).
“And” between values parts separate entries of the source, which are not always exact repeats. Equal entries are not always repeated. Where two headings read alike, the source gives them in different places. Marks after values point to notes of the source that are not given here.

Key:
[1] = healthy volunteers, ref Goldberg et al. 26, cited from earlier work; for AUC: 10 Kalamata olives
[2] = ref Serra et al. 23, cited from earlier work
[3] = Plasma pharmacokinetics (noncompartmental analysis) after single oral administration of Arbequina table olives; type: in vivo, Sprague-Dawley rats; conditions: for Cmax/D: D = dose of hydroxytyrosol in nmol; for AUC0–∞/D / AUCt/D: D in nmol; for AUCt: time zero up to 8 h; for Tmax: median (min, max); for k el: read-out: λz (apparent elimination rate constant) (converted); for Cmax: read-out: Peak plasma concentration (Cmax), text value with ± spread
Experimental: The experiments were performed using Sprague–Dawley rats (n = 13) randomly divided into two groups, the 30 olives group (n = 6) that received the dose of 3.85 g/kg and the 60 olives group (n = 7), which was given the dose of 7.70 g/kg. The freshly prepared homogeneous suspensions were given to overnight fasted rats by oral gavage (18-gauge × 76 mm, ref FFSS-186-76, Instech Laboratories, Inc., Plymouth Meeting, PA). The volume of administration was 10 mL/kg. After the single administration of Arbequina table olives, blood was obtained at 30, 60, 90, 120, 240, 360, and 480 min from each animal. Samples were withdrawn from the lateral saphenous vein and placed into Microvette CB 300 K2 EDTA-K2 (Sarstedt, Granollers, Spain) coated tubes.[31] At each time point, 0.40 mL of blood was collected, meaning that a maximum of 2.4 mL was obtained from each animal. […] Blood corresponding to 480 min was taken by a cardiac puncture with the animal under terminal anesthesia. Plasma was immediately obtained by centrifugation at 1500g at 4 °C for 15 min (Centrifuge Megafuge 1.0R, Heraeus, Boadilla, Spain) and kept at −20 °C until analysis.
Hydroxytyrosol and its metabolites in plasma were determined by liquid–liquid extraction followed by LC-MS/MS analysis as previously described.[11] Briefly, 200 μL of plasma was mixed with 10 μL of freshly prepared 10% ascorbic acid followed by 10 μL of 0.5% acetic acid and 10 μL of 2-(3-hydroxyphenyl) ethanol (10 μM, I.S.). Then, 2 mL of ethyl acetate was added to the samples that were vigorously mixed in a vortex (5 min), placed into an ultrasonic bath (10 min), and centrifuged at 1500g at 4 °C (15 min) (Centrifuge Megafuge 1.0R). A second extraction of the pellet with 2 mL of ethyl acetate was carried out. Subsequently, the two pooled supernatants were evaporated to dryness, reconstituted with 100 μL of 80% methanol, placed into amber vials, and immediately analyzed by LC-MS/MS.
The plasmatic concentrations were calculated by the interpolation of the peak area ratio of hydroxytyrosol versus I.S. on a calibration curve. Calibration standards were constructed with blank plasma obtained by cardiac puncture from overnight fasted rats that had never received either table olives or hydroxytyrosol. […] Results were expressed in nmol per liter of plasma (nmol/L). The method was validated following the EMA guidelines[33] at six different concentrations ranging from 0 to 250 nmol/L analyzed on three different days.
Individual PK of hydroxytyrosol and its metabolites were estimated from the plasma concentrations versus time profiles of each animal, through a noncompartmental analysis (NCA) with Phoenix-64 (Build 8.3.4.295, Certara, Princeton, N.J., USA). All concentrations of each pharmacokinetic profile were considered for NCA because the values obtained were above the LOQ. Peak plasma concentration (Cmax) and time to peak plasma concentration (Tmax) were determined by visual inspection of the pharmacokinetic profiles. The apparent elimination rate constant (λz) was estimated from the terminal slope of the semilogarithmic concentration–time curve. The apparent elimination half-life (t1/2λz) was calculated as t1/2z = 0.693/λz. The area under the plasma concentration–time curve from time zero to the last experimental time (AUCt) with analyte concentrations above the LOQ, was calculated by the linear-log trapezoidal rule. The area from time zero to infinity (AUC0–∞) was calculated by adding to the AUCt value the extrapolated area calculated as the ratio between the predicted concentration (Ct) at the last sampling time with concentrations above the LOQ and λz. The mean residence time (MRT0–∞) was given by the ratio of the area under the first-moment curve (AUMC0–∞) to the area under the zero-moment curve (AUC0–∞). The ratio indicating the relative exposure of each metabolite with respect to hydroxytyrosol (AUC0–∞m/AUC0–∞) was also calculated for all of the metabolites. […]

[4] = 30 olives group (hydroxytyrosol 2.95 mg/kg oral), geometric mean (95% CI)
[5] = 60 olives group (hydroxytyrosol 5.89 mg/kg oral), geometric mean (95% CI)

Cmax/D [3, 4]: 0.0044 (0.0026, 0.0077)^a
AUC0–∞/D [3, 4]: 0.8149 (0.7420, 0.8949)^a
AUCt/D [3, 4]: 0.6383 (0.5153, 0.7907)^a
Vss/F (apparent steady-state volume of distribution) [3, 4]: 1139 (671.4, 1932)^a L/kg
AUCt [3, 4]: 3363 (2642, 4280)a min·nmol/L
Cmax/D [3, 5]: 0.0039 (0.0028, 0.0053)^a
AUC0–∞/D [3, 5]: 0.7993 (0.6170, 1.035)^a
AUCt/D [3, 5]: 0.7091 (0.5407, 0.9300)^a
Vss/F (apparent steady-state volume of distribution) [3, 5]: 882.8 (674.2, 1161)^a L/kg
Tmax ([3]; 60 olives group (hydroxytyrosol 5.89 mg/kg oral)): 41 (33, 68)^a min
AUCt [3, 5]: 7912 (6031, 10381)^b min·nmol/L
half-life ([3]; Sprague-Dawley, rat, plasma, oral, both doses, assuming first-order absorption, read-out: absorption half-life inferred from Cmax/AUC): 2.1 to 2.4 h
CL/F ([3]; Sprague-Dawley, rat, plasma, oral, both doses, read-out: Cl/F): ~258 L/h/kg
Vd/F ([3]; Sprague-Dawley, rat, plasma, oral, both doses, read-out: Vss/F or Vdarea/F): ~1000 L/kg
Vd/F ([3]; Sprague-Dawley, rat, plasma, po, 2.95 mg/kg, 30 olives group (hydroxytyrosol 2.95 mg/kg oral), geometric mean (95% CI), read-out: Vdarea/F (apparent volume of distribution, terminal phase)): 1070 L/kg
Vd/F ([3]; Sprague-Dawley, rat, plasma, po, 2.95 mg/kg, 30 olives group (hydroxytyrosol 2.95 mg/kg oral), geometric mean (95% CI), read-out: Vss/F (apparent steady-state volume of distribution)): 1140 L/kg
half-life ([3]; Sprague-Dawley, rat, plasma, po, 2.95 mg/kg, 30 olives group (hydroxytyrosol 2.95 mg/kg oral), geometric mean (95% CI), read-out: t1/2λz (apparent elimination half-life)): 2.77 h
Tmax ([3]; Sprague-Dawley, rat, plasma, po, 2.95 mg/kg, 30 olives group (hydroxytyrosol 2.95 mg/kg oral), read-out: Tmax (converted)): ~1 h
Vd/F ([3]; Sprague-Dawley, rat, plasma, po, 5.89 mg/kg, 60 olives group (hydroxytyrosol 5.89 mg/kg oral), geometric mean (95% CI), read-out: Vdarea/F (apparent volume of distribution, terminal phase)): 678 L/kg
Vd/F ([3]; Sprague-Dawley, rat, plasma, po, 5.89 mg/kg, 60 olives group (hydroxytyrosol 5.89 mg/kg oral), geometric mean (95% CI), read-out: Vss/F (apparent steady-state volume of distribution)): 883 L/kg
half-life ([3]; Sprague-Dawley, rat, plasma, po, 5.89 mg/kg, 60 olives group (hydroxytyrosol 5.89 mg/kg oral), geometric mean (95% CI), read-out: t1/2λz (apparent elimination half-life)): 1.83 h
Tmax ([3]; Sprague-Dawley, rat, plasma, po, 5.89 mg/kg, 60 olives group (hydroxytyrosol 5.89 mg/kg oral), read-out: Tmax (converted)): ~0.667 h
half-life ([3]; Sprague-Dawley, rat, plasma, po, both doses (30 and 60 olives groups), oral table olives, read-out: half-life (t1/2λz) (converted)): ~2.5 h
CL/F ([3]; Sprague-Dawley, rat, plasma, 30 olives group (hydroxytyrosol 2.95 mg/kg oral), geometric mean (95% CI), read-out: Cl/F (apparent clearance)): 268 L/h/kg
MRT inf ([3]; Sprague-Dawley, rat, plasma, 30 olives group (hydroxytyrosol 2.95 mg/kg oral), geometric mean (95% CI), read-out: MRT0–∞ (converted)): 4.26 h
k el ([3]; Sprague-Dawley, rat, plasma, 30 olives group (hydroxytyrosol 2.95 mg/kg oral), geometric mean (95% CI)): 7e-05 s⁻¹
Cmax ([3]; Sprague-Dawley, rat, plasma, 30 olives group (hydroxytyrosol 2.95 mg/kg oral)): 23.4 ± 1.68 nM
CL/F ([3]; Sprague-Dawley, rat, plasma, 60 olives group (hydroxytyrosol 5.89 mg/kg oral), geometric mean (95% CI), read-out: Cl/F (apparent clearance)): 257 L/h/kg
MRT inf ([3]; Sprague-Dawley, rat, plasma, 60 olives group (hydroxytyrosol 5.89 mg/kg oral), geometric mean (95% CI), read-out: MRT0–∞ (converted)): 3.44 h
k el ([3]; Sprague-Dawley, rat, plasma, 60 olives group (hydroxytyrosol 5.89 mg/kg oral), geometric mean (95% CI)): 0.000105 s⁻¹
Cmax ([3]; Sprague-Dawley, rat, plasma, 60 olives group (hydroxytyrosol 5.89 mg/kg oral)): 43 ± 1.39 nM
MRT inf ([3]; Sprague-Dawley, rat, plasma, both doses (30 and 60 olives groups), oral table olives, read-out: mean residence time (MRT0–∞)): ~4 h
PK behaviour between doses (dose linearity) ([3]; between doses of 2.95 and 5.85 mg hydroxytyrosol/kg, noncompartmental analysis): linear PK
percentage of the AUC of each compound divided by the AUC of the sum of all of them ([3]; both doses (similar ratios between doses), plasma): 11%
SMILES: OCCc1ccc(O)c(O)c1 [hydroxytyrosol]
Cmax ([1]; 10 Kalamata olives with 389.87 mg hydroxytyrosol/kg, parent compound): 0.64 nM
AUC ([1]; converted unit): 0.65 nM·h
AUC [1]: 0.65 nM·h
share in rat plasma ([2]; after phenolic extract from olive cake containing 10.35 mg/kg of hydroxytyrosol): 6%
Tmax ([2]; sampling times limited to 1, 2 and 4 h): 2 h
AUC0–∞ ([3]; 30 olives group (3.85 g olives/kg, hydroxytyrosol 2.95 mg/kg oral), geometric mean (95% CI)): 4293 min·nmol/L and 4293 (3815, 4830)^a min·nmol/L
AUC0–∞ ([3]; 60 olives group (7.70 g olives/kg, hydroxytyrosol 5.89 mg/kg oral), geometric mean (95% CI)): 8919 min·nmol/L and 8919 (6920, 11495)^b min·nmol/L
